The values below are quoted from earlier work in patent US20080160594A1, “Methods of Light Activated Release of Ligands from Endosomes” (INVITROGEN CORPORATION, priority 2001, published 2008).

Molecules are shown by their SMILES.

For this data set the following is noted: Vlassov et al., 1994.

For `CCCCCCCC/C=C\CCCCCCCCOCC(C[N+](C)(C)C)OCCCCCCCC/C=C\CCCCCCCC.[Cl-]` (stereo not shown) [DOTMA, N-(1-(2,3-dioleyloxy)propyl)-N,N,N-trimethylammonium chloride], the “increase of the antisense effect of a phosphorothioate oligonucleotide” value is recorded as 1000 fold.
